According to US12122815B2, “GIP receptor agonist peptide compounds and uses thereof” (TAKEDA PHARMACEUTICAL COMPANY LIMITED, priority 2018, dated 2024):

Key:
human GLP-1R = target: T1, human GLP-1R (Homo sapiens, UniProt P43220); assay: Agonist activity on human GLP-1R, CRE-luciferase reporter assay with increase in intracellular cAMP as indicator (hGLP-1R/CRE-luc/CHO-K1 cell); format: cell-based
T1 construct: FLAG (N)
Excerpt: (§1) Evaluation of Agonist Activity on Human GIPR and Human GLP-1R with Increase in Intracellular cAMP Concentration as Indicator
(§2) A) Evaluation of Agonist Activity on Human GIPR and Human GLP-IR with Increase in Intracellular cAMP Concentration as Indicator
(§3) (3) Construction of Reporter Plasmid
(§4) Four Copies of a cAMP responsive sequence and a Zeocin resistance gene were transferred to pGL3(R2.2)-Basic Vector (Promega) to construct a Cre-luc(Zeo) reporter plasmid.
(5) Construction of Expression Plasmid of Human GLP-1R Gene
The human GLP-IR gene having an identical sequence to Genebank Accession No. NM_002062 was cloned into a pIRESneo3 vector to prepare hGLP-1/pIRESneo3.
(6) Transfer of Human GLP-1R Gene and Reporter Plasmid to CHO-K1 Cell and Obtaining of Expressing Cell
The Cre-luc (Zeo) obtained in (3) and the plasmid hGLP-1/pIRESneo3 obtained in (5) were transferred to the CHO-K1 cell to obtain a transformant. Subsequently, the cell line inducing the luciferase expression, hGLP-1R/CRE-luc/CHO-K1 cell, was selected from the obtained transformant by adding GLP-1.
(§5) 25 μL each of the hGIPR/CRE-LUC/CHO-K1 cell was inoculated in a 384-well white plate (Corning) in such a way as to provide 5×10^3 cells/well and cultured in a HamF12 medium containing 10% fetal bovine serum, 100 U/mL penicillin, and 100 μg/mL streptomycin in a CO2 incubator at 37° C. overnight. 5 μL of a medium containing a test compound was added to the cells and incubated for 4 hours at the indicated concentration in a CO2 incubator at 37° C. Steady-Glo (Promega) was added in amounts of 30 μL and shaken under light shielding. 20 Minutes later, luciferase activity was measured using a plate reader Envision (PerkinElmer). The GIPR agonist activity was calculated with increase in intracellular cAMP concentration as the indicator when the luciferase activity in the presence of 10 nM of GIP was 100% and the luciferase activity in the case of adding DMSO instead of the test compound was 0%.
The GLP-IR agonist activity was assayed in the same manner as above using the hGLP-1R/CRE-luc/CHO-K1 cell.

human GIPR = target: T2, human GIPR (Homo sapiens, UniProt P48546); assay: Agonist activity on human GIPR, CRE-luciferase reporter assay with increase in intracellular cAMP as indicator (hGIPR/CRE-LUC/CHO-K1 cell); format: cell-based
T2 construct: FLAG (N)
T2 sequence (P48546 22-466): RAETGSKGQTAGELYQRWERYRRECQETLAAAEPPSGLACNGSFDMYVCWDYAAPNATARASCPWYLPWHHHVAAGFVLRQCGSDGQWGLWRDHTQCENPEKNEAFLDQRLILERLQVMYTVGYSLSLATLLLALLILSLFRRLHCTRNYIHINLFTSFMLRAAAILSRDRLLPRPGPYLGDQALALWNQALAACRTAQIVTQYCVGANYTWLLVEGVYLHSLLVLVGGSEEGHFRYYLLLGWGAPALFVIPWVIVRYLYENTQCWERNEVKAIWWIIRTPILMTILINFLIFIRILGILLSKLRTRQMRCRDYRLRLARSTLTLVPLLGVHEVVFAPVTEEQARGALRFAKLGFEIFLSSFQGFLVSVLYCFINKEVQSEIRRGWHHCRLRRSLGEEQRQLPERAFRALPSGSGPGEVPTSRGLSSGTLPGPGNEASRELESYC
Excerpt: as §1, §2
(1) Construction of Expression Plasmid of Human GIPR Gene. The Human GIPR Gene Having an Identical Sequence to Genebank Accession No. U39231 was Cloned into a pMSRα-Neo Vector to Prepare hGIPR/pMSRα-Neo.
(2) Construction of Reporter Plasmid Expressing Cell Luciferase Reporter Gene with a cAMP-Responsive Sequence Located Upstream was Transferred to a CHO-K1 Cell to Construct a CRE-LUC/CHO-K1 Cell.
as §3, §4
(4) Transfer of Human GIPR Gene to CRE-LUC/CHO-K1 Cell and Obtaining of Expressing Cell the Plasmid hGIPR/pMSRα-Neo Obtained in (1) was Transferred to the CRELUC.
CHO-K1 cell obtained in (2) to obtain a transformant. Subsequently, the cell line inducing the luciferase expression, hGIPR/CRE-LUC/CHO-K1 cell, was selected from the obtained transformant by adding GIP.
as §5, with “Steady-Glo (Promega) was added in amounts of 30 μL and shaken under light shielding.” left out

T1 sequence (P43220 24-463): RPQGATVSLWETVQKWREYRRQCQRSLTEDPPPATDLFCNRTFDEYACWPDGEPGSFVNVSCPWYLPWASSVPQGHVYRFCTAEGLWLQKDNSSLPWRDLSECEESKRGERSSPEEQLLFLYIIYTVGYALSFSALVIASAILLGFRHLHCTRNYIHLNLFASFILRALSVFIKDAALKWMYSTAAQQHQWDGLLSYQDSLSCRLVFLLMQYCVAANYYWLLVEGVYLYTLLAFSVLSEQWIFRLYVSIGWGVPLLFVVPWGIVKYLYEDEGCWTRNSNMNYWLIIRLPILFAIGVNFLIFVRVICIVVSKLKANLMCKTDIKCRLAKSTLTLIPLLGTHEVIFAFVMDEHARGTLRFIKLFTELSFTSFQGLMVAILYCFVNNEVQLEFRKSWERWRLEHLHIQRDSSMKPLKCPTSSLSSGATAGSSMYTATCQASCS

| Structure (SMILES) | EC50 (human GLP-1R) | EC50 (human GIPR) |
| --- | --- | --- |
| CCCCCCCCCCCCCCCC(=O)NCCCC[C@H](NC(=O)[C@H](CO)NC(=O)[C@@H]1CCCN1C(=O)[C@@H]1CCCN1C(=O)[C@@H]1CCCN1C(=O)[C@H](C)NC(=O)CNC(=O)[C@H](CO)NC(=O)[C@H](CO)NC(=O)[C@@H]1CCCN1C(=O)CNC(=O)CNC(=O)[C@H](CCCCN)NC(=O)[C@H](CC(C)C)NC(=O)[C@H](CC(C)C)NC(=O)[C@H](Cc1c[nH]c2ccccc12)NC(=O)[C@H](CCCCN)NC(=O)[C@@H](NC(=O)[C@H](Cc1ccccc1)NC(=O)[C@H](CCC(=O)O)NC(=O)C(C)(C)NC(=O)[C@H](CCC(N)=O)NC(=O)[C@H](C)NC(=O)[C@H](CCC(N)=O)NC(=O)[C@H](CCCCN)NC(=O)[C@H](CC(=O)O)NC(=O)[C@H](CC(C)C)NC(=O)[C@H](CC(C)C)NC(=O)[C@@H](NC(=O)[C@H](CO)NC(=O)[C@H](Cc1ccc(O)cc1)NC(=O)[C@H](CC(=O)O)NC(=O)[C@H](CO)NC(=O)[C@H](CCCCN)NC(=O)[C@@H](NC(=O)[C@@H](NC(=O)CNC(=O)[C@H](CCC(=O)O)NC(=O)C(C)(C)NC(=O)[C@@H](N)Cc1ccc(O)cc1)[C@@H](C)O)C(C)C)[C@@H](C)CC)C(C)C)C(N)=O [Compound 10] | 210 nM | 0.03 nM |
| CCCCCCCCCCCCCCCC(=O)NCCCC[C@H](NC(=O)[C@H](CO)NC(=O)[C@@H]1CCCN1C(=O)[C@@H]1CCCN1C(=O)[C@@H]1CCCN1C(=O)[C@H](C)NC(=O)CNC(=O)[C@H](CO)NC(=O)[C@H](CO)NC(=O)[C@@H]1CCCN1C(=O)[C@H](CCCCN)NC(=O)[C@H](CCC(N)=O)NC(=O)[C@H](C)NC(=O)[C@H](CC(C)C)NC(=O)[C@H](CC(C)C)NC(=O)[C@H](Cc1c[nH]c2ccccc12)NC(=O)[C@H](CC(N)=O)NC(=O)[C@@H](NC(=O)[C@H](Cc1ccccc1)NC(=O)[C@H](CC(=O)O)NC(=O)[C@H](CCC(N)=O)NC(=O)[C@H](CCC(N)=O)NC(=O)[C@H](Cc1c[nH]cn1)NC(=O)[C@@H](NC(=O)[C@H](CCCCN)NC(=O)[C@H](CC(=O)O)NC(=O)[C@H](CCSC)NC(=O)[C@H](C)NC(=O)[C@@H](NC(=O)[C@H](CO)NC(=O)[C@H](Cc1ccc(O)cc1)NC(=O)[C@H](CC(=O)O)NC(=O)[C@H](CO)NC(=O)[C@@H](NC(=O)[C@H](Cc1ccccc1)NC(=O)[C@@H](NC(=O)CNC(=O)[C@H](CCC(=O)O)NC(=O)[C@H](C)NC(=O)[C@@H](N)Cc1ccc(O)cc1)[C@@H](C)O)[C@@H](C)CC)[C@@H](C)CC)[C@@H](C)CC)C(C)C)C(N)=O [Compound 12] | 86 nM |  |
| CCCCCCCCCCCCCCCCCCCC(=O)NCC(=O)NCC(=O)NCC(=O)NCC(=O)NCCCC[C@H](NC(=O)[C@H](CO)NC(=O)[C@@H]1CCCN1C(=O)[C@@H]1CCCN1C(=O)[C@@H]1CCCN1C(=O)[C@H](C)NC(=O)CNC(=O)[C@H](CO)NC(=O)[C@H](CO)NC(=O)[C@@H]1CCCN1C(=O)CNC(=O)CNC(=O)[C@H](CCCCN)NC(=O)[C@H](CC(C)C)NC(=O)[C@H](CC(C)C)NC(=O)[C@H](Cc1c[nH]c2ccccc12)NC(=O)[C@H](CCCCN)NC(=O)[C@@H](NC(=O)[C@H](Cc1ccccc1)NC(=O)[C@H](CCC(=O)O)NC(=O)C(C)(C)NC(=O)[C@H](CCC(N)=O)NC(=O)[C@H](C)NC(=O)[C@H](CCC(N)=O)NC(=O)[C@H](CCCCN)NC(=O)[C@H](CC(=O)O)NC(=O)[C@H](CC(C)C)NC(=O)[C@H](CC(C)C)NC(=O)[C@@H](NC(=O)[C@H](CO)NC(=O)[C@H](Cc1ccc(O)cc1)NC(=O)[C@H](CC(=O)O)NC(=O)[C@H](CO)NC(=O)[C@H](CCCCN)NC(=O)[C@@H](NC(=O)[C@@H](NC(=O)CNC(=O)[C@H](CCC(=O)O)NC(=O)C(C)(C)NC(=O)[C@@H](N)Cc1ccc(O)cc1)[C@@H](C)O)C(C)C)[C@@H](C)CC)C(C)C)C(N)=O [Compound 8] | 180 nM | 0.04 nM |
| CC[C@H](C)[C@H](NC(=O)[C@H](CO)NC(=O)[C@H](Cc1ccc(O)cc1)NC(=O)[C@H](CC(=O)O)NC(=O)[C@H](CO)NC(=O)[C@H](CCCCN)NC(=O)[C@@H](NC(=O)[C@@H](NC(=O)CNC(=O)[C@H](CCC(=O)O)NC(=O)C(C)(C)NC(=O)[C@@H](N)Cc1ccc(O)cc1)[C@@H](C)O)C(C)C)C(=O)N[C@@H](CC(C)C)C(=O)N[C@@H](CC(C)C)C(=O)N[C@@H](CC(=O)O)C(=O)N[C@@H](CCCCN)C(=O)N[C@@H](CCC(N)=O)C(=O)N[C@@H](C)C(=O)N[C@@H](CCC(N)=O)C(=O)NC(C)(C)C(=O)N[C@@H](CCC(=O)O)C(=O)N[C@@H](Cc1ccccc1)C(=O)N[C@H](C(=O)N[C@@H](CCCCN)C(=O)N[C@@H](Cc1c[nH]c2ccccc12)C(=O)N[C@@H](CC(C)C)C(=O)N[C@@H](CC(C)C)C(=O)N[C@@H](CCCCN)C(=O)NCC(=O)NCC(=O)N1CCC[C@H]1C(=O)N[C@@H](CO)C(=O)N[C@@H](CO)C(=O)NCC(=O)N[C@@H](C)C(=O)N1CCC[C@H]1C(=O)N1CCC[C@H]1C(=O)N1CCC[C@H]1C(=O)N[C@@H](CO)C(=O)N[C@@H](CCCCNC(=O)CCCCCCCCCCCCCCC(=O)O)C(N)=O)C(C)C [Compound 11] | 180 nM | 0.1 nM |
